Source: PubChem BioAssay AID1745844 (Carcinogenic Potency Database (CPDB), 2022)
Active and inactive are the calls of the source. How the calls were made is not given here.

System: rodent lifetime carcinogenesis bioassay, tumor incidence TD50
Assay: carcinogenic potency in animals, long-term in vivo studies, CPDB compilation (AID 1745844)

In the case of `Cc1cc(O)cc(C)c1N(C)C`, the TD50 (mouse, strain B6AKF1, females, oral dosing, site: any site (literature study), lesion: several types, types named in the paper, dosed 76 weeks, study length 76 weeks) is reported as 220 mg/kg/day (inactive), the carcinogen call (mouse, strain B6AKF1, females, oral dosing, site: liver, lesion: hepatoma, dosed 76 weeks, study length 76 weeks) is reported as “negative (inactive)” and the carcinogen call (mouse, strain B6AKF1, females, oral dosing, site: lung, lesion: adenoma, dosed 76 weeks, study length 76 weeks) is reported as “negative (inactive)”. The TD50 (mouse, strain B6AKF1, males, oral dosing, site: any site (literature study), lesion: several types, types named in the paper, dosed 76 weeks, study length 76 weeks) was 1190 mg/kg/day (inactive), the TD50 (mouse, strain B6AKF1, males, oral dosing, site: liver, lesion: hepatoma, dosed 76 weeks, study length 76 weeks) was 207 mg/kg/day (inactive) and the carcinogen call (mouse, strain B6AKF1, males, oral dosing, site: lung, lesion: adenoma, dosed 76 weeks, study length 76 weeks) was “negative (inactive)”. For the same molecule, the TD50 (mouse, strain B6C3F1, females, oral dosing, site: any site (literature study), lesion: several types, types named in the paper, dosed 76 weeks, study length 76 weeks) was 265 mg/kg/day (inactive), the carcinogen call (mouse, strain B6C3F1, females, oral dosing, site: liver, lesion: hepatoma, dosed 76 weeks, study length 76 weeks) was “negative (inactive)” and the TD50 (mouse, strain B6C3F1, females, oral dosing, site: lung, lesion: adenoma, dosed 76 weeks, study length 76 weeks) was 265 mg/kg/day (inactive). The TD50 (mouse, strain B6C3F1, males, oral dosing, site: any site (literature study), lesion: several types, types named in the paper, dosed 76 weeks, study length 76 weeks) was 34.8 mg/kg/day (inactive), the TD50 (mouse, strain B6C3F1, males, oral dosing, site: liver, lesion: hepatoma, dosed 76 weeks, study length 76 weeks) was 247 mg/kg/day (inactive) and the TD50 (mouse, strain B6C3F1, males, oral dosing, site: lung, lesion: adenoma, dosed 76 weeks, study length 76 weeks) was 56.1 mg/kg/day (inactive).

With `Cc1ccc2c(c1)C(N1CCN(C)CC1)=Nc1ccccc1S2` the carcinogen call (rat, strain albino, females, in feed, site: mammary gland, lesion: fibroadenoma, dosed 78 weeks, study length 78 weeks) was “negative (inactive)” and the carcinogen call (rat, strain albino, males, in feed, site: pituitary gland, lesion: adenoma, dosed 78 weeks, study length 78 weeks) was “negative (inactive)”.

With `CCCCN(N)C=O` the TD50 (mouse, strain Swiss albino, females, in drinking water, site: clitoral gland, lesion: several types, types named in the paper, dosed 92 weeks, study length 92 weeks) was 252 mg/kg/day, the TD50 (mouse, strain Swiss albino, females, in drinking water, site: clitoral gland, lesion: squamous-cell carcinoma, dosed 92 weeks, study length 92 weeks) was 321 mg/kg/day and the TD50 (mouse, strain Swiss albino, females, in drinking water, site: lung, lesion: several types, types named in the paper, dosed 92 weeks, study length 92 weeks) was 19.4 mg/kg/day. The carcinogen call (mouse, strain Swiss albino, males, in drinking water, site: liver, lesion: angioma, dosed 90 weeks, study length 90 weeks) was “negative (inactive)”, the TD50 (mouse, strain Swiss albino, males, in drinking water, site: lung, lesion: several types, types named in the paper, dosed 90 weeks, study length 90 weeks) was 19.2 mg/kg/day and the TD50 (mouse, strain Swiss albino, males, in drinking water, site: preputial gland, lesion: angiosarcoma, dosed 90 weeks, study length 90 weeks) was 519 mg/kg/day. For the same molecule, the TD50 (mouse, strain Swiss albino, males, in drinking water, site: preputial gland, lesion: fibrosarcoma, dosed 90 weeks, study length 90 weeks) was 304 mg/kg/day, the TD50 (mouse, strain Swiss albino, males, in drinking water, site: preputial gland, lesion: several types, types named in the paper, dosed 90 weeks, study length 90 weeks) was 28.2 mg/kg/day and the TD50 (mouse, strain Swiss albino, males, in drinking water, site: preputial gland, lesion: squamous-cell carcinoma, dosed 90 weeks, study length 90 weeks) was 35.6 mg/kg/day.

`NC(=S)NNC(N)=S` gave a TD50 (mouse, strain B6C3F1, females, in feed, site: any site (literature study), lesion: several types, types named in the paper, dosed 94 weeks, study length 94 weeks) of 4350 mg/kg/day, a TD50 (mouse, strain B6C3F1, females, in feed, site: liver, lesion: hepatocellular adenoma + hepatocellular carcinoma + neoplastic nodule, dosed 94 weeks, study length 94 weeks) of 5670 mg/kg/day and a TD50 (mouse, strain B6C3F1, females, in feed, site: liver, lesion: hepatocellular carcinoma, dosed 94 weeks, study length 94 weeks) of 5670 mg/kg/day. The TD50 (mouse, strain B6C3F1, females, in feed, site: lung, lesion: alveolar/bronchiolar adenoma + alveolar/bronchiolar carcinoma, dosed 94 weeks, study length 94 weeks) was 22900 mg/kg/day, the TD50 (mouse, strain B6C3F1, males, in feed, site: any site (literature study), lesion: several types, types named in the paper, dosed 94 weeks, study length 94 weeks) was 20000 mg/kg/day (inactive) and the TD50 (rat, strain Fischer 344, females, in feed, site: any site (literature study), lesion: several types, types named in the paper, dosed 109 weeks, study length 109 weeks) was 842 mg/kg/day (inactive). It also gave a TD50 (rat, strain Fischer 344, females, in feed, site: liver, lesion: hepatocellular adenoma + hepatocellular carcinoma + neoplastic nodule, dosed 109 weeks, study length 109 weeks) of 131000 mg/kg/day, a TD50 (rat, strain Fischer 344, males, in feed, site: any site (literature study), lesion: several types, types named in the paper, dosed 109 weeks, study length 109 weeks) of 960 mg/kg/day and a TD50 (rat, strain Fischer 344, males, in feed, site: liver, lesion: hepatocellular adenoma + hepatocellular carcinoma + neoplastic nodule, dosed 109 weeks, study length 109 weeks) of 5010 mg/kg/day. For the same molecule, the TD50 (rat, strain Fischer 344, males, in feed, site: pituitary gland, lesion: carcinoma, NOS, dosed 109 weeks, study length 109 weeks) was 2620 mg/kg/day (inactive).

For `CCc1cccc2c3c([nH]c12)C(CC)(CC(=O)O)OCC3` (centres undefined), the carcinogen call (mouse, strain Charles River CD1, females, in feed, site: any site (literature study), lesion: benign tumor, dosed 78 weeks, study length 78 weeks) was “negative (inactive)”, the TD50 (mouse, strain Charles River CD1, females, in feed, site: any site (literature study), lesion: malignant tumor, dosed 78 weeks, study length 78 weeks) was 336 mg/kg/day (inactive) and the carcinogen call (mouse, strain Charles River CD1, females, in feed, site: any site (literature study), lesion: several types, types named in the paper, dosed 78 weeks, study length 78 weeks) was “negative (inactive)”. The carcinogen call (mouse, strain Charles River CD1, females, in feed, site: liver, lesion: hepatocellular adenoma, dosed 78 weeks, study length 78 weeks) was “negative (inactive)”, the carcinogen call (mouse, strain Charles River CD1, females, in feed, site: lung, lesion: alveolar/bronchiolar carcinoma, dosed 78 weeks, study length 78 weeks) was “negative (inactive)” and the carcinogen call (mouse, strain Charles River CD1, males, in feed, site: any site (literature study), lesion: benign tumor, dosed 78 weeks, study length 78 weeks) was “negative (inactive)”. For the same molecule, the carcinogen call (mouse, strain Charles River CD1, males, in feed, site: any site (literature study), lesion: malignant tumor, dosed 78 weeks, study length 78 weeks) was “negative (inactive)”, the carcinogen call (mouse, strain Charles River CD1, males, in feed, site: any site (literature study), lesion: several types, types named in the paper, dosed 78 weeks, study length 78 weeks) was “negative (inactive)” and the carcinogen call (mouse, strain Charles River CD1, males, in feed, site: liver, lesion: hepatocellular adenoma, dosed 78 weeks, study length 78 weeks) was “negative (inactive)”. For the same molecule, the carcinogen call (mouse, strain Charles River CD1, males, in feed, site: liver, lesion: hepatocellular carcinoma, dosed 78 weeks, study length 78 weeks) was “negative (inactive)”, the carcinogen call (rat, strain Charles River CD (Sprague-Dawley), females, in feed, site: any site (literature study), lesion: benign tumor, dosed 104 weeks, study length 104 weeks) was “negative (inactive)” and the carcinogen call (rat, strain Charles River CD (Sprague-Dawley), females, in feed, site: any site (literature study), lesion: malignant tumor, dosed 104 weeks, study length 104 weeks) was “negative (inactive)”. For the same molecule, the carcinogen call (rat, strain Charles River CD (Sprague-Dawley), females, in feed, site: any site (literature study), lesion: several types, types named in the paper, dosed 104 weeks, study length 104 weeks) was “negative (inactive)”, the carcinogen call (rat, strain Charles River CD (Sprague-Dawley), females, in feed, site: liver, lesion: hepatocellular carcinoma, dosed 104 weeks, study length 104 weeks) was “negative (inactive)” and the TD50 (rat, strain Charles River CD (Sprague-Dawley), females, in feed, site: liver, lesion: neoplastic nodule, dosed 104 weeks, study length 104 weeks) was 1010 mg/kg/day (inactive). For the same molecule, the carcinogen call (rat, strain Charles River CD (Sprague-Dawley), males, in feed, site: any site (literature study), lesion: benign tumor, dosed 104 weeks, study length 104 weeks) was “negative (inactive)”, the carcinogen call (rat, strain Charles River CD (Sprague-Dawley), males, in feed, site: any site (literature study), lesion: malignant tumor, dosed 104 weeks, study length 104 weeks) was “negative (inactive)” and the carcinogen call (rat, strain Charles River CD (Sprague-Dawley), males, in feed, site: any site (literature study), lesion: several types, types named in the paper, dosed 104 weeks, study length 104 weeks) was “negative (inactive)”. The carcinogen call (rat, strain Charles River CD (Sprague-Dawley), males, in feed, site: liver, lesion: hepatocellular carcinoma, dosed 104 weeks, study length 104 weeks) was “negative (inactive)” and the TD50 (rat, strain Charles River CD (Sprague-Dawley), males, in feed, site: liver, lesion: neoplastic nodule, dosed 104 weeks, study length 104 weeks) was 1400 mg/kg/day (inactive).

`Nc1cc(S(=O)(=O)O)cc2cc(S(=O)(=O)O)c(N=Nc3ccc(-c4ccc(N=Nc5c(S(=O)(=O)O)cc6cc(S(=O)(=O)O)cc(N)c6c5O)cc4)cc3)c(O)c12` was tested, and the TD50 (rat, strain Fischer 344, females, in feed, site: any site (literature study), lesion: several types, types named in the paper, dosed 13 weeks, study length 13 weeks) was 3.21 mg/kg/day, the TD50 (rat, strain Fischer 344, females, in feed, site: liver, lesion: hepatocellular adenoma + hepatocellular carcinoma + neoplastic nodule, dosed 13 weeks, study length 13 weeks) was 3.21 mg/kg/day and the TD50 (rat, strain Fischer 344, females, in feed, site: liver, lesion: hepatocellular carcinoma + neoplastic nodule, dosed 13 weeks, study length 13 weeks) was 3.21 mg/kg/day. It also gave a TD50 (rat, strain Fischer 344, females, in feed, site: liver, lesion: hepatocellular carcinoma, dosed 13 weeks, study length 13 weeks) of 5.97 mg/kg/day, a TD50 (rat, strain Fischer 344, males, in feed, site: any site (literature study), lesion: several types, types named in the paper, dosed 13 weeks, study length 13 weeks) of 1.18 mg/kg/day and a TD50 (rat, strain Fischer 344, males, in feed, site: liver, lesion: hepatocellular adenoma + hepatocellular carcinoma + neoplastic nodule, dosed 13 weeks, study length 13 weeks) of 1.18 mg/kg/day. For the same molecule, the TD50 (rat, strain Fischer 344, males, in feed, site: liver, lesion: hepatocellular carcinoma + neoplastic nodule, dosed 13 weeks, study length 13 weeks) was 1.18 mg/kg/day.

With `Nc1ccc(-c2ccc(N)c(Cl)c2)cc1Cl` the carcinogen call (dog, strain Beagle, females, given by capsule, site: liver, lesion: several types, types named in the paper, dosed 369 weeks, study length 370 weeks) was “positive”, the carcinogen call (dog, strain Beagle, females, given by capsule, site: urinary bladder, lesion: several types, types named in the paper, dosed 369 weeks, study length 370 weeks) was “positive” and the carcinogen call (mouse, strain ICR/Jcl, males, in feed, site: liver, lesion: hepatoma, dosed 52 weeks, study length 52 weeks) was “positive”. The carcinogen call (rat, strain Charles River CD (Sprague-Dawley), females, in feed, site: liver, lesion: one or several types, types not named, dosed 69 weeks, study length 69 weeks) was “negative (inactive)”, the TD50 (rat, strain Charles River CD (Sprague-Dawley), females, in feed, site: mammary gland, lesion: adenocarcinoma, dosed 69 weeks, study length 69 weeks) was 18.3 mg/kg/day and the TD50 (rat, strain Charles River CD (Sprague-Dawley), males, in feed, site: Zymbal's gland, lesion: squamous-cell carcinoma, dosed 69 weeks, study length 69 weeks) was 60.1 mg/kg/day. The TD50 (rat, strain Charles River CD (Sprague-Dawley), males, in feed, site: all sites, lesion: granulocytic leukemia, dosed 69 weeks, study length 69 weeks) was 66.2 mg/kg/day, the carcinogen call (rat, strain Charles River CD (Sprague-Dawley), males, in feed, site: liver, lesion: one or several types, types not named, dosed 69 weeks, study length 69 weeks) was “negative (inactive)” and the TD50 (rat, strain Charles River CD (Sprague-Dawley), males, in feed, site: mammary gland, lesion: adenocarcinoma, dosed 69 weeks, study length 69 weeks) was 69.6 mg/kg/day.
